A word on the ED50: it is the midpoint of the dose-response relation.

A short description of data set [1]: in vivo. The conditions noted are these: rat, po. From the text:
(§1) This oral screen is designated as phase VI.

A short description of data set [2]: in vivo. Conditions: mouse, in vivo. On the procedure: The first phase of the ADD Program involved performing tests on male Carworth Farms #1 mice. […] Three tests were performed:
In the second phase of the ADD program protocol, estimates of anticonvulsant activity and neurotoxicity are quantified. The median effective dose (ED50) in the MES, sc Met, and rotorod test is determined. In the case of a compound with apparent activity in only one anticonvulsant test, testing is carried out in the other up to, and in some cases beyond, doses which produce neurological deficit. Compounds which fail to produce minimal neurological deficit are tested whenever possible to doses ten times their lowest anticonvulsant ED50. […] The rotorod ED50 is determined at the time of the peak neurologic deficit.

In data set [3] the test system is Maximal electroshock seizures. As to the kind of experiment: MES maximal electroshock seizure test, mice ip. It counts as in vivo. Details: TPE (time of peak effect), activity: unit not given here. Conditions: for responders at 100 mg/kg / responders at 10 mg/kg: read-out: MES, animals protected/tested (converted). How it is done:
Three tests were performed:
1. MES--Electroshock Seizure Test
(§2) Maximal electroshock seizures are elicited with a 60-cycle alternating current of 50 mA intensity (5-7 times that necessary to elicit minimal electroshock seizures) delivered via corneal electrodes for 0.2 seconds. A drop of 0.9% saline is instilled in the eye prior to application of the electrodes in order to […].

Data set [4] deals with Maximal electroshock seizures. Kind of data set: Phase VI oral MES test, rats. It counts as in vivo. Conditions: for ED50 / responders at 60 mg/kg / responders at 50 mg/kg: oral; for ED50: rat; for responders at 60 mg/kg / responders at 50 mg/kg: Rattus norvegicus, read-out: MES, animals protected/tested (converted).
Description: as §2, §1

Data set [5] relates to Corneal Kindled rats. Details: ED50 (reduction from Stage 5 to Stage 4): unit not given beside the values. Conditions: cited from earlier work; for ED50 (reduction from Stage 5 to Stage 4): data provided by the ADD Program.
Data set [6] deals with Subcutaneous Pentylenetetrazol seizure. Kind of data set: sc Met subcutaneous pentylenetetrazol (Metrazol) seizure test, mice. It counts as in vivo. The conditions noted are these: Mus musculus, sc, read-out: scMet, animals protected/tested (converted).
Data set [7] in a line: Neurotoxicity, rats ip. The conditions noted are these: 100 mg/kg.
Description: The rotorod test is used to elevate neurotoxicity. The animal is placed on a 1 inch diameter knurled plastic rod rotating at 6 rpm. […] Neurologic toxicity is defined as the failure of the animal to remain on the rod for 1 minute and the results are expressed as the number of animals protected/the number of animals tested.
The toxicity evaluation for the commercial agents as previously indicated was based on the onset of ataxia.
Data set [8] relates to seizures. Kind of data set: Anticonvulsant evaluation (ASP phase I / overall). It counts as in vivo, mice. The conditions noted are these: for minimal effective dose: Mus musculus, ip, Phase I, read-out: ASP Classification. The method, boiled down:
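Male Carworth Farms #1 mice; maximal electroshock seizures elicited by 60-cycle AC, 50 mA, 0.2 s via corneal electrodes after a drop of 0.9% saline in the eye. Animals observed for 30 minutes.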

The mark [9] stands for this setting: Mus musculus, ip, 0.5 h, 30 min.
The mark [10] stands for this setting: Mus musculus, ip, 0.5 h, 30 min, read-out: MES, animals protected/tested.
The mark [11] stands for this setting: Mus musculus, ip, 4 h, 4 h, read-out: MES, animals protected/tested.

Read-outs that look alike come from different tables or passages of the source.

Regarding `O=C1NC(=O)C(c2ccccc2)(c2ccccc2)N1` [phenytoin, reference compound], the TD50 in data set [1] was greater than 3000 mg/kg. In data set [2] (ip), the “TPE (time of peak effect), toxicity” value amounted to 2. Besides, the “TPE (time of peak effect), activity” value in data set [3] (Phase II, ip) came out at 2. Further, the 50% effective dose (ED50) in data set [4] (Phase VI) amounted to 29.8 mg/kg. Besides, the “ED50 (reduction from Stage 5 to Stage 4)” value in data set [5] (ip, 0.5 h) is recorded as 48.25; in data set [5] (po, 0.5 h) it was greater than 100. Besides, the “activity in corneal kindling” value in data set [5] (oral route) is “inactive”.

On to `NC(=O)N1c2ccccc2C=Cc2ccccc21` [carbamazepine, reference compound], for which, in data set [2] (ip), the “TPE (time of peak effect), toxicity” value was 0.5. Further, the “TPE (time of peak effect), activity” value in data set [3] (Phase II, ip) turned out to be 0.5. Moreover, the 50% effective dose (ED50) in data set [4] (Phase VI) was 8.5 mg/kg. Moreover, the “ED50, corneal kindling” value in data set [5] (comparative commercial product) is listed as 28.90 mg/kg. In data set [5] (po, 1 h, 30 min), the “ED50 (reduction from Stage 5 to Stage 4)” value is recorded as 28.90.

For the compound `O=C1CN=C(c2ccccc2Cl)c2cc([N+](=O)[O-])ccc2N1` [clonazepam], the “ED50 (reduction from Stage 5 to Stage 4)” value in data set [5] (po, 1 h, 30 min) was 0.70.

On to `CC1(C)CC(=O)C=C(Nc2ccccc2)C1` [Compound 36], for which the responders at 100 mg/kg in data set [6] (0.5 h, 30 min) was 0%; in data set [6] (4 h, 4 h), 0%; in data set [3] (setting [9]), 66.7%; in data set [3] (Mus musculus, ip, 4 h, 4 h), 0%. The responders at 300 mg/kg in data set [6] (0.5 h, 30 min) is 0%; in data set [6] (4 h, 4 h) it was 0%; in data set [3] (setting [10]), 100%; in data set [3] (setting [11]) it was 0%. Moreover, the TD50 is greater than 250 mg/kg in data set [1] and 233 mg/kg in data set [2] (ip). The selectivity ratio in data set [1] came out at 8.3; in data set [2] (ip), 2.13. Further, the “Tox, animals toxic/tested” value in data set [1] (60 mg/kg) is on record as 0/4. The animals displaying neurotoxicity/tested in data set [7] (0.25 h (Table X-A)) was 5/8; in data set [7] (0.50 h (Table X-A)), 7/8; in data set [7] (1.00 h (Table X-A)) it was 6/8; in data set [7] (2.00 h (Table X-A)), 6/8; in data set [7] (4.00 h (Table X-A)), 3/8; in data set [7] (6.00 h (Table X-A)), 3/8. In data set [7] (24.00 h (Table X-A)), the animals displaying neurotoxicity/tested was 0/8. Further, in data set [2], the “protective index” value is “modest”. In addition, the “TPE (time of peak effect), toxicity” value in data set [2] (ip) was 0.5. The minimal effective dose in data set [8] was less than 100 mg/kg. Also, the “anticonvulsant activity” value in data set [8] (mouse, in vivo) was “potent anticonvulsants”. Besides, the 50% effective dose (ED50) in data set [3] (Mus musculus, Phase II, ip, time of peak effect) came to 109 mg/kg; in data set [4] (Phase VI), 30.1 mg/kg. In data set [3] (Phase II, ip), the “TPE (time of peak effect), activity” value is 0.5. Further, in data set [4] (Phase VI, rats), the “anticonvulsant activity over time” value is “anticonvulsant activity is lost after 1 hour”. The responders at 60 mg/kg is 75% in data set [4] (0.5 h, 0.50 h); 75% in data set [4] (0.25 h); 0% in data set [4] (1.00 h); 0% in data set [4] (2.00 h); 0% in data set [4] (4.00 h).

For the compound `CCOC(=O)C1C(=O)C=C(Nc2ccc(Br)cc2)CC1C` (stereo not shown) [Compound 123], the responders at 100 mg/kg in data set [6] (0.5 h, 30 min) was 0%; in data set [6] (4 h, 4 h), 0%; in data set [3] (setting [9]) it was 100%; in data set [3] (Mus musculus, ip, 4 h, 4 h), 66.7%. Also, the responders at 300 mg/kg was 0% in data set [6] (0.5 h, 30 min); 0% in data set [6] (4 h, 4 h); 100% in data set [3] (setting [10]); 100% in data set [3] (setting [11]). Also, the “Tox, animals toxic/tested” value is reported as 0/4 in data set [1] (50 mg/kg) and 0/8 in data set [2] (ip, 100 mg/kg). In addition, the minimal effective dose in data set [8] was less than 100 mg/kg. Also, the responders at 10 mg/kg is 75% in data set [3] (Mus musculus, ip, 0.25 h, mice ip, 0.25 h); 75% in data set [3] (Mus musculus, ip, 0.5 h, mice ip, 0.50 h); 75% in data set [3] (Mus musculus, ip, 1 h, mice ip, 1.00 h); 50% in data set [3] (Mus musculus, ip, 2 h, mice ip, 2.00 h); 0% in data set [3] (Mus musculus, ip, 4 h, mice ip, 4.00 h). Further, the “anti-MES protecting ability” value in data set [3] (Phase I) is recorded as “showed anti-MES protecting ability”. Also, the responders at 50 mg/kg is 100% in data set [4] (0.5 h, 0.50 h); 100% in data set [4] (0.25 h); 100% in data set [4] (1.00 h); 100% in data set [4] (2.00 h); 100% in data set [4] (4.00 h).

Regarding `COC(=O)C1C(=O)C=C(Nc2ccc(C(F)(F)F)cc2)CC1(C)C` (stereo not shown) [Compound 121], the responders at 100 mg/kg in data set [6] (0.5 h, 30 min) is 0%; in data set [6] (4 h, 4 h), 0%; in data set [3] (setting [9]) it was 100%; in data set [3] (Mus musculus, ip, 4 h, 4 h) it was 100%. Also, the responders at 300 mg/kg is 0% in data set [6] (0.5 h, 30 min); 0% in data set [6] (4 h, 4 h); 100% in data set [3] (setting [10]); 100% in data set [3] (setting [11]). In addition, the “Tox, animals toxic/tested” value in data set [1] (50 mg/kg) is listed as 0/4. Besides, the “Tox (rotorod), animals toxic/tested” value in data set [2] (3 mg/kg) and in data set [2] (10 mg/kg) was 0/4 in each case. Moreover, the minimal effective dose in data set [8] is less than 100 mg/kg. The responders at 3 mg/kg in data set [3] (Mus musculus, ip, 0.5 h, Phase II, 3 mg/kg, 0.50 h, read-out: MES, animals protected/tested) was 0%. For the same compound, the responders at 10 mg/kg in data set [3] (Mus musculus, ip, 0.5 h, Phase II, 0.50 h) is 0%. For the same compound, the responders at 50 mg/kg in data set [4] (0.5 h, 0.50 h) was 75%; in data set [4] (0.25 h), 75%; in data set [4] (1.00 h) it was 100%; in data set [4] (2.00 h) it was 100%.

On to `CCOC(=O)C1C(=O)C=C(Nc2ccc(CC)cc2)CC1C` (stereo not shown) [Compound 126], for which the responders at 300 mg/kg in data set [6] (0.5 h, 30 min) was 0%; in data set [6] (4 h, 4 h) it was 0%; in data set [3] (setting [10]), 100%; in data set [3] (setting [11]), 0%. Also, the “Tox, animals toxic/tested” value in data set [1] (50 mg/kg) is listed as 0/4. Also, the “Tox (rotorod), animals toxic/tested” value in data set [2] (100 mg/kg) is listed as 0/2. For the same compound, the minimal effective dose in data set [8] was greater than 100 mg/kg. The responders at 100 mg/kg is 100% in data set [3] (Mus musculus, ip, 0.25 h, Phase II, 0.25 h) and 0% in data set [3] (Mus musculus, ip, 1 h, Phase II, 1.00 h). The responders at 50 mg/kg is 75% in data set [4] (0.5 h, 0.50 h); 50% in data set [4] (0.25 h); 75% in data set [4] (1.00 h); 75% in data set [4] (2.00 h); 50% in data set [4] (4.00 h).
